Here are results for three compounds from patent US11969497B2, “Method for producing an Entada seed extract enriched with metabolites of interest, extract produced by such a method, and cosmetic and dermocosmetic applications of such an extract” (EXSYMOL, priority 2018, dated 2024).

Experiment [1] is described as follows: DPPH antioxidant test (test 2b). Conditions: absorbance 517 nm after 30 minutes. As to the method:
(§1) This solution was then was diluted in water to obtain, under the test conditions, an absorbance of 0.5 at 734 nm. In each well of a 96-well microplate, were placed 100 μL of a solution of the extract according to the invention to be evaluated and 150 μL of oxidized ABTS solution. After 6 minutes, the absorbance was measured at 734 nm.
Experimentally by the DPPH test in each well of a 96 well micro plate, were placed 100 μL of a solution of the active to be evaluated and 100 μL of an ethanol solution of 1,1-diphenyl-2-picrylhydrazyle (DPPH-Aldrich D913-2) at 200 μM. After 30 minutes, the absorbance was measured at 517 nm.
A general note: DPPH is a stable violet radical that fades when it is reduced.

Experiment [2] in a line: ABTS antioxidant test (test 2a). Conditions: absorbance 734 nm after 6 minutes. As for the experimental part:
as §1

A short description of experiment [3]: Photo-induced isomerization of trans-urocanic acid under UV-B (test 1a/1b), HPLC assay. Conditions: test 1b. As to the method: Two series of experiments were performed, the first with a fixed dose UV-B radiation of 300 mJ/cm^2 (test 1a), the second with a varying dose of UV-B radiation (test 1b) and using as a control a synthetic replica of entadamide A, namely the compound “(E)-N-(2-hydroxyethyl)-3-[…]” which is the subject of patent application EP 3103436.
Experimentally, the test was carried out in a 0.01 M citrate buffer of pH 5.5, the slightly acidic pH being more in relation to the acidity of the superficial skin layers in which the trans-urocanic acid marker is located. Thus, the solutions to be irradiated (20 mL), namely the control with or without the extract according to the invention, were placed in glass Petri dishes, uncovered, then subjected at room temperature to UV-B irradiation using a UV-B oven (LabOSI®). Aliquots (500 μL) were then sampled in HPLC vials to be immediately stored protected from light and at low temperature (+4/+8° C.), prior to analysis by HPLC assay. Chromatographic profiles were thus obtained, and the residual amount of trans-urocanic acid was determined.
Experimentally concerning test 1b, the study was carried out in an almost identical manner to test 1a above, with first checking that under the experimental conditions defined, trans-urocanic acid generated a significant amount of cis-urocanic acid which can be measured by HPLC analysis. […]

The next experiment has as its system MMP-1 metalloproteinase. Description: MMP-1 secretion by primary human fibroblasts (NHDF) exposed to blue light, ELISA (test 6). The experiment is classed as cell-based. The note with it: 5 mM; blue light 30 J/cm^2; non-irradiated 100, irradiated control 214.

Description for MMP-1 metalloproteinase: Primary human fibroblasts (“NHDF”) were isolated from a mammoplasty from a patient. The NHDFs were cultured in DMEM medium supplemented with 4.5 g/l of glucose and 10% of FCS. They were maintained in an atmosphere at 37° C. and 10% CO2. On D-3, the fibroblasts were inoculated in 24-well plates at a rate of 15,000 cells/cm^2. On D-1, the NHDFs were incubated at 37° C. and 10% CO2 for 24 h with the extract of Entada seeds according to the invention. […] After irradiation, the cells were reincubated at 37° C. and 10% CO2 for an additional 24 h and the culture supernatants were harvested in order to perform an ELISA assay of the MMP-1 metalloproteinase (Abcam kit, ab100603). The results obtained were normalized with respect to the quantity of cells per condition and subjected to statistical analysis in triplicate.

On to `O=C(O)Cc1cc(O)ccc1O[C@@H]1O[C@H](CO)[C@@H](O)[C@H](O)[C@H]1O` [phaseoloidin, 2-O-β-D-glucopyranoside derivative of homogentisic acid], for which the EC50 (in general, the concentration at which the effect is half-maximal) came to 540 µM in experiment [1] and 8.3 µM in experiment [2]. Moreover, in experiment [3], the “contribution of non-hydrolyzed phaseoloidin in the photoprotective activity of the extract against UV-B radiation” value is on record as above 25%.
For the compound `O=C1O[C@H]([C@@H](O)CO)C(O)=C1O` [ascorbic acid], the values for the EC50 in experiment [1] and in experiment [2] were 25 µM and 24 µM, respectively.
For `CC(=O)N[C@@H](CS)C(=O)O` [N-acetyl-L-cysteine (NAC), N-acetyl-L-cysteine], the “% of MMP-1 secreted” value in the experiment with MMP-1 metalloproteinase is 61%.
